# Several values for one entry are separate records, joined by “and”; a condition that tells them apart may be missing. Identical values can stand only once.
# Assays:
# Format in all cases: in vivo
# [1] = test system: black bean aphid (Aphis fabae); assay: Aphis fabae test (seed application), Example J; conditions: 90 g ai/unit (100,000 seeds), sugar beet seed treatment
# Procedure: (§1) To prepare a suitable active compound preparation 1 part by weight of the active compound is mixed with the given amount of solvent and emulsifier and the concentrate is diluted to the desired concentration with water.
# Sugar beet seed (Beta vulgaris) is treated with the active compound preparation and sown into soil. After ca. 4 week the beet plants are infected with the black bean aphid (Aphis fabae).
# (§2) After the desired time the death rate in % is determined. Here 100% means that all aphids were killed; 0% means that no aphids were killed.
# [2] = test system: bird cherry-oat aphid (Rhopalosiphon padi); assay: Rhopalosiphon padi test (seed application); conditions: 1.4 g ai/kg, barley seed treatment
# Procedure: as §1
# Barley seed (Hordeum vulgare) is treated with the active compound preparation and sown into the soil. After about 1 week the barley plants are infected with the bird cherry-oat aphid (Rhopalosiphon padi).
# as §2
# [3] = test system: adult Musca domestica, strain WHO(N), sensitive; assay: Test with flies; conditions: 100 ppm; after 48 hours
# Procedure: 10 mg of the active compound are dissolved in 0.5 ml dimethylsulphoxide, lower concentrations are prepared by dilution with water.
# 0.2 ml of this active compound preparation is pipetted onto a sponge (ca. Ø1.5 cm) that has been wetted with 0.8 ml sugar solution. The sponge and 10 test animals are transferred to a dish (4×4 cm, h 2 cm) and covered.
# After 48 hours the activity of the active compound preparation is determined. Here 100% means that all flies were killed; 0% means that no flies were killed.
# [4] = test system: white fly (Bemisia tabaci, resistant strain); assay: Bemisia tabaci test (resistant strain), cotton leaf dip; conditions: 1000 ppm
# Procedure: (§3) To prepare a suitable active compound preparation 1 part by weight of the active compound is mixed with the given amount of solvent and emulsifier and the concentrate is diluted to the desired concentration with water containing emulsifier.
# Leaf sections of the cotton plant (Gossypium hirsutum) are treated by dipping in the active compound preparation at the desired concentration and after drying of the coating are infected with adults of the white fly (Bemisia tabaci, resistant strain).
# (§4) After the desired time the death rate in % is determined. Here 100% means that all animals were killed; 0% means that no animals were killed.
# [5] = test system: caterpillars of the fall army worm (Spodoptera frugiperda); assay: Spodoptera frugiperda test, treated soil (Example A1); conditions: 4 ppm in soil, cotton plant
# Procedure: as §1
# The active compound preparation is mixed with earth. The concentration given relates to the amount of active compound per unit volume soil (mg/l=ppm). The treated earth is filled into pots and planted with a cotton plant (Gossypium hirsutum). After a week infection is carried out with caterpillars of the fall army worm (Spodoptera frugiperda).
# After the desired time the activity in % is determined. Here 100% means that no eating damage is visible, 0% means that eating damage on the treated plants corresponds to that of the controls.
# [6] = test system: green peach aphid (Myzus persicae); assay: Myzus persicae test (soil application); conditions: 4 ppm in soil, pepper plant
# Procedure: as §1
# The active compound mixture was mixed with soil. The concentration given refers to amount of active compound per volume unit of earth (mg/l=ppm). Pots are filled with the treated earth and planted with a pepper plant (Capsicum annuum). After a week they are infected with the green peach aphid (Myzus persicae).
# as §2
# [7] = test system: caterpillars of the fall army worm (Spodoptera frugiperda); assay: Spodoptera frugiperda test (spray treatment); conditions: 500 g/ha; spray on maize leaf sections; after 7 d
# Procedure: as §3
# Maize leaf sections (Zea mays) are sprayed with an active compound preparation at the desired concentration and after drying treated with caterpillars of the fall army worm (Spodoptera frugiperda).
# After the desired time the activity in % is determined. Here 100% means that all caterpillars were killed; 0% means that no caterpillars were killed.
# Lucilia cuprina larvae = assay: Fly larvae test; conditions: 100 ppm
# Procedure: 10 mg active compound were dissolved in 0.5 ml dimethylsulphoxide. To prepare a suitable formulation the active compound solution is diluted with water to the respective desired concentration.
# About 20 Lucilia cuprina larvae are placed in a test tube that contains ca. 1 cm^3 horse flesh and 0.5 ml of the active compound preparation under test.
# After the desired time the death rate in % is determined. Here 100% means that all larvae were killed; 0% means that no larvae were killed.
# [8] = test system: white fly (Bemisia tabaci), normal sensitive strain; assay: Bemisia tabaci test (normal sensitive strain), spraying of infested cotton plants; conditions: 100 ppm, spray on cotton plants
# Procedure: as §3
# Cotton plants (Gossypium hirsutum) that are infested with eggs, larvae and pupae of the white fly (Bemisia tabaci) are treated by, spraying with the active compound preparation at the desired concentration.
# as §4
# [9] = test system: leafminer fly (Liriomyza trifolii) larvae; assay: Liriomyza trifolii test, spraying of kidney bean plants; conditions: 100 ppm, spray on kidney bean plants
# Procedure: as §3
# Kidney bean plants (Phaseolus vulgaris) that are infected with the larvae of the leafminer fly (Liriomyza trifolii) are treated by spraying with the active compound mixture at the desired concentration.
# After the desired time the activity in % is determined.
# [10] = test system: adult Ctenocephalides felis, strain "Georgi"; assay: Test with cat fleas/oral administration; conditions: 100 ppm in citrated bovine blood
# Procedure: To prepare a suitable formulation a suitable active compound solution was prepared from 10 mg active compound with 0.5 ml DMSO. 10 μl of this formulation was added to 2 ml citrated bovine blood and stirred.
# 20 fasting adult fleas (Ctenocephalides felis, strain “Georgi”) were placed in a chamber (Ø5 cm) that is closed with cheese cloth at the top and bottom. A metal cylinder the underside of which is closed with Parafilm is placed on the chamber. The cylinder contains the 2 ml blood-active compound formulation which can be consumed by the fleas through the Parafilm membrane.
# Whilst the blood is warmed to 37° C. the region of the flea chamber is at room temperature. Controls were carried out with the same volume of DMSO without compound addition.
# After the desired time the death rate in % is determined. Here 100% means that all fleas were killed; 0% means that no fleas were killed.
# [11] = test system: horse chestnut scale (Pulvinaria regalis); assay: Pulvinaria regalis test, preparation poured onto chestnut trees (Example C1); conditions: 10 mg per plant, poured on
# Procedure: as §1
# The active compound preparation was poured onto chestnut trees (Castanea vesca). The concentration given relates to the amount of active compound per plant. After a defined time infection was carried out with horse chestnut scale (Pulvinaria regalis).
# as §4
# [12] = test system: larvae of the Colorado beetle (Leptinotarsa decemlineata); assay: Leptinotarsa decemlineata larvae test, spraying of potato leaves; conditions: 60 g ai/ha, spray on potato leaves
# Procedure: as §3
# Leaves of potato plants (Solanum tuberosum) that are infested with the larvae of the Colorado beetle (Leptinotarsa decemlineata) are treated by spraying with the active compound preparation at the desired concentration.
# After the desired time the activity in % is determined. Here 100% means that all beetle larvae were killed; 0% means that no beetle larvae were killed.
# [13] = test system: adults of the green stink bug (Piezodorus guildingi); assay: Piezodorus guildingi test, open land (spray treatment); conditions: 300 g/ha, soy bean plants
# Procedure: To prepare a suitable active compound preparation 1 part by weight of the active compound is mixed with the given amount of water to the desired concentration.
# Soy bean plants (Glycine max) infested with the adults of the green stink bug (Piezodorus guildingi) are treated with an active compound preparation at the desired concentration.
# After the desired time the death rate in % is determined. Here 100% means that all bugs were killed; 0% means that no bugs were killed.
Structure (SMILES),Activity in % after 7 d [1] [%],Activity in % after 7 d [2] [%],activity [3] [%],Death rate in % after 3 d [4] [%],activity (eating damage) after 7 days [5] [%],Activity in % after 7 d [6] [%],Death rate in % after 7 d [7] [%],death rate after 2 days (Lucilia cuprina larvae) [%],Death rate in % after 14 d [8] [%],Activity in % after 7 d [9],death rate after 2 days [10] [%],death rate after 30 days [11] [%],Activity in % after 6 d [12] [%],death rate after 11 days [13] [%]
CN(Cc1ccc(Cl)nc1)C1=CC(=O)OC1 [Compound 84],100,100,80,78,98,100,100,100,100,55% and 46%,100,100,100,100
O=C1C=C(N(Cc2ccc(Cl)nc2)C2CC2)CO1 [Compound 88],,100,,,,100,100,100,,,,,100,

# — patent US20080280953A1, “Agents Used for the Treatment of Seeds” (Bayer Cropscience AG, priority 2004, published 2008)
